Test results published in patent publication US7067633B2, “Targeting cellular entry, cell survival, and pathogenicity by dynein light chain 1/PIN in human cells” (Board of Regents, The University of Texas System, priority 2003, dated 2006).

Legend:
Type in all cases: cell-based, human
DLC1 = DLC1 protein and mRNA expression; details: MCF-7/TAMR1 and Ishikawa cells, 24 h
Method: MCF-7/Tam-sen, MCF-7/TAMR1 and Ishikawa cells were treated with E2 (10^−9M) or Tam (10^−9M) for 24 h, and cell lysates were assayed for DLC1 and Pak1 protein expression. […] FIG. 21C: Effect of different periods of E2 treatment and cycloheximide (CHX) and Actinomycin D (ACTD) treatment on the ability of E2 to upregulate DLC1 mRNA in MCF-7 cells.

DLC1 promoter = DLC1 promoter luciferase reporter; details: Ishikawa cells, 24 h
Method: FIGS. 21A–21J—Estrogenic signals upregulate DLC1 expression via Pak1 pathway. FIG. 21A: DLC1 upregulation by E2 or Tam. MCF-7/Tam-sen, MCF-7/TAMR1 and Ishikawa cells were treated with E2 (10^−9M) or Tam (10^−9M) for 24 h, and cell lysates were assayed for DLC1 and Pak1 protein expression. FIG. 21B: Upregulation of DLC1 mRNA in MCF-7 cells treated with different doses of E2 for 24 h. FIG. 21C: Effect of different periods of E2 treatment and cycloheximide (CHX) and Actinomycin D (ACTD) treatment on the ability of E2 to upregulate DLC1 mRNA in MCF-7 cells. FIG. 21D: DLC1 mRNA and protein levels in MCF-7/DA-Pak1 cells by Northern and Western blotting. FIG. 21E: DLC1 mRNA and protein levels in MCF-7/DN-Pak1 cells by Northern and Western blotting. FIG. 21F: Downregulation of DLC1 protein expression in MCF-7 cells treated with Pak1-siRNA for 24 h. FIG. 21G: Modulation of DLC1 promoter (1245 bp) luc activity by the expression of wtPak1 or DN-Pak1. MCF-7 cells were transfected with DLC1-luc and transfected with either wtPak1 or Pak1 inhibitor 83-149 and luc activity was measured after 24 h. FIG. 21H: Upregulation of DLC1 promoter luc activity following pak1 induction in MCF-7/DA-Pak 1 cells. FIG. 21I: Downegulation of DLC1 promoter luc activity in MCF-7/DN-pak1 cells. […]

ZR 75 cells = assay: Boyden chamber migration assay, NIH3T3 conditioned medium; details: stable ZR75 clones
Method: FIGS. 4A–4E—Effect of DLC1/PIN expression on cell motility. FIG. 4A: expression of DLC1/PIN in a number of normal and breast cancer cells analyzed by western blot analysis. FIG. 4B: Expression of T7-DLC1/PIN in stable clones analyzed by western blot analysis. FIG. 4C: Effect DLC1/PIN expression on the motility. Migratory potential of DLC1/PIN wild type or DLC1/PIN^del88-89 mutant expressing clones was measured by Boyden chamber assay using NIH3T3 conditioned medium as chemoattractant. Migrated cells were recorded by microscopy. Representative data of three replicate experiments is shown. FIG. 4D: ZR75/RFP-DLC1 cells which stably expressing wild type red florescent-tagged DLC1/PIN protein (RFPDLC1/PIN) was incubated with FITC-dextran beads. After twenty minutes, cells were fixed with methanol and stained for endogenous Pak1 (blue), RFPDLC1/PIN (red) and FITC-dextran (green). An inset containing the cytoplasmic region was blown up to visualize the colocalization of Pak1 and DLC1/PIN on dextran beads. Merged images are presented in the upper right panel, and colocalization of Pak1 with DLC1/PIN can be visualized as white vesicles due to colocalization of pixels from Pak1 (blue), DLC1/PIN (red) and FITC dextran (green). FIG. 4E: ZR75/RFP-DLC1/PIN were transfected with a dominant negative mutant of Pak1 K299RLL (a myc-tagged kinase dead and GTPase binding defective construct of Pak1). […]

DLC1 promoter activity (DLC1 promoter) | Molecule | expression of the DLC1 protein (DLC1) | migratory potential (ZR 75 cells)
stimulated | CC/C(=C(\c1ccccc1)c1ccc(OCCN(C)C)cc1)c1ccccc1 [tamoxifen] | robustly upregulated | 
 | DLC1/PIN^del 88-89: DLC1/PIN mutant in which Ser88 and amino acid 89 were deleted |  | abolished DLC1/PIN mediated increase in the migratory potential
